The results in this text go back to patent US12297294B2, “Cortistatin analogues for the treatment of inflammatory and/or immune diseases” (BCN PEPTIDES, S.A., priority 2013, dated 2025).

One series concerns Raw 264 cells. In words: Inflammatory response in vitro: LPS-stimulated Raw 264 cells, cytokines (ELISA) and NO (Griess). The format is cell-based. The note with it: LPS 1 μg/ml, peptide 100 nM, 24 hours; for NO (nitric oxide) level in supernatant: Griess test, basal 0.44; for IL-6 level in supernatant: basal 0; for TNFalpha level in supernatant: basal 0.48. As to the method:
Raw 264 cells were cultured in complete DMEM medium until a confluence of 80% was reached. The cells were incubated either in the absence or presence of lipopolysaccharide (LPS, 1 μg/ml, from E. coli serotype 055:B5). The cells incubated in the absence of lipopolysaccharide were used as a reference (basal). The new cortistatin analogues were added at 100 nM concentration at the start of the culture. After 24 hours, the supernatants were collected and cytokine and nitric oxide levels were measured. The cytokine level (TNFalpha and IL-6) was established using a ELISA test. The quantity of nitric oxide (NO) was established using the Griess test. Equal volumes of supernatants from the culture (90 μl) and Griess reagents were mixed and absorbance was measured at 550 nm. The nitrite amount was calculated in relation to a standard NaNO2 curve.
For comparison, the values of cortistatin-14 (CST-14), somatostatin-14 (SOM-14) and three somatostatin analogues described in WO 2010/128098 A1 were evaluated: […]
Background: In an ELISA, binding on a coated surface is turned into a signal by an enzyme label.

Another series has as its system T cells (splenocytes). In words: Immune response in vitro: anti-CD3 stimulated splenocyte T cells, proliferation and cytokines. The format is cell-based, C57B1I/6 mice. Conditions: anti-CD3 2 μg/ml, peptide 100 nM; for INFγ level in supernatant / IL-2 level in supernatant: 48 hours; for INFγ level in supernatant: activated 2.52, basal 0; for IL-2 level in supernatant: activated 3.22, basal 0.23; for proliferation ([3H]-thymidine incorporation): 72 hours, activated 9843, basal 640. As to the method: Splenocytes from 8 week old male C57B1I/6 mice were obtained after mechanical dissociation of cells, filtration through a nylon mesh and lysis of red blood cells. The splenocytes were incubated in complete DMEM medium until a density of 10^6 cells/ml. The non-adherent cells (formed in 80% by T cells) were used for measuring cytokines and for proliferation assays. The T cells were cultured in complete DMEM medium and stimulated with anti-CD3 antibodies (2 μg/ml) in the presence of different cortistatin analogues at a concentration of 100 nM. After 48 hours, the supernatants of the culture were isolated and the levels of cytokines (IFNγ and IL-2) were determined by using an ELISA test. In order to determine the effect of the different cortistatin analogues in proliferation, the cells were cultured for 72 hours and 0.5 μCi (0.0185 MBq)/well of [^3H]— thymidine was added for the last 8 hours of culture, the membranes were collected and the added [^3H]-Thymidine was measured using a scintillation counter.
For comparison, the values of cortistatin-14 (CST-14), somatostatin-14 (SOM-14) and three somatostatin analogues described in WO 2010/128098 A1 were determined: […]
A general note: Uptake of a labelled nucleoside into DNA is a usual measure of proliferation.

A short description of series [1]: Serum stability in 90% human serum at 37° C., RP-HPLC. Conditions: for main metabolite in serum: loss of C-terminal Lys. Format: in vitro ADME. As to the method: The new compounds were incubated with 90% human serum at 37° C. Aliquots were extracted at different incubation times. Methanol was added to precipitate the proteins from the serum, it was centrifuged and the supernatant was subject to a chromatographic analysis using RP-HPLC (Gradient: 20-80% B in 30 min, B=0.07% TFA in acetonitrile). The disappearance of the initial product was analyzed using the area corresponding to the initial product and half-life time was calculated.

The target in series [2] is T1, somatostatin receptor sstr2 (UniProt P30874 1-369, limits assumed).
T1 construct: whole, on cells
In words: radioligand competition vs 125I-Tyr11-somatostatin 14, CHO-K1 cells expressing sstr2, 0.1 nM to 10 uM. The method, then: (§1) CHO-K1 cells in which each of the 5 somatostatin receptors (sstr1-sstr5) were expressed independently were used. […] The radioactivity obtained in the absence of somatostatin-14 was considered as the total binding and that obtained in the presence of 1 μM of somatostatin-14 was considered as the non-specific bond. The specific binding was considered as the difference between the complete binding and the non-specific binding.
A general note: In a radioligand displacement assay an active substance lowers the binding of a labelled ligand.

Series [3] addresses T2, somatostatin receptor sstr3 (UniProt P32745 1-418, limits assumed).
T2 construct: whole, on cells
In words: radioligand competition vs 125I-Tyr11-somatostatin 14, CHO-K1 cells expressing sstr3, 0.1 nM to 10 uM. The method, then:
as §1

In series [4] the target is T3, somatostatin receptor sstr1 (UniProt P30872 1-391, limits assumed).
T3 construct: whole, on cells
In words: radioligand competition vs 125I-Tyr11-somatostatin 14, CHO-K1 cells expressing sstr1, 0.1 nM to 10 uM. As to the method:
as §1

For series [5], the target named is T4, somatostatin receptor sstr5 (UniProt P35346 1-364, limits assumed).
T4 construct: whole, on cells
In words: radioligand competition vs 125I-Tyr11-somatostatin 14, CHO-K1 cells expressing sstr5, 0.1 nM to 10 uM. As to the method:
as §1

Where a SMILES comes first, the peptide text is derived from it. Bridges are numbered along the chain shown (N, C = ends). [ ]: non-standard residue; d: D form. The star is where a group is joined. Phe(2,4,6-Me3) = Cc1cc(C)c(C[C@H](N)C(=O)O)c(C)c1; Phe(3,5-F2) = N[C@@H](Cc1cc(F)cc(F)c1)C(=O)O; Myristoyl = CCCCCCCCCCCCCC(=O)*; Octanoyl = CCCCCCCC(=O)*

T2 sequence (P32745 whole entry): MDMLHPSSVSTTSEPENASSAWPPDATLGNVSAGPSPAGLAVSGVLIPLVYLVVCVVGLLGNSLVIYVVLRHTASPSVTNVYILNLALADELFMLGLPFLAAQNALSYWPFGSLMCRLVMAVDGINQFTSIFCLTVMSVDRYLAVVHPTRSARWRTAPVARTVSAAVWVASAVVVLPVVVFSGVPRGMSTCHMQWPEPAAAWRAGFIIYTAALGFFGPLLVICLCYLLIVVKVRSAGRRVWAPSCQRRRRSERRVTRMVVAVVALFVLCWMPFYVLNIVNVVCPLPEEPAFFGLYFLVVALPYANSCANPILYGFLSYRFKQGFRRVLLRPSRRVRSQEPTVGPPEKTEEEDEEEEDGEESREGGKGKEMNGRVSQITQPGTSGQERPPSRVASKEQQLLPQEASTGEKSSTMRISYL
T1 sequence (P30874 whole entry): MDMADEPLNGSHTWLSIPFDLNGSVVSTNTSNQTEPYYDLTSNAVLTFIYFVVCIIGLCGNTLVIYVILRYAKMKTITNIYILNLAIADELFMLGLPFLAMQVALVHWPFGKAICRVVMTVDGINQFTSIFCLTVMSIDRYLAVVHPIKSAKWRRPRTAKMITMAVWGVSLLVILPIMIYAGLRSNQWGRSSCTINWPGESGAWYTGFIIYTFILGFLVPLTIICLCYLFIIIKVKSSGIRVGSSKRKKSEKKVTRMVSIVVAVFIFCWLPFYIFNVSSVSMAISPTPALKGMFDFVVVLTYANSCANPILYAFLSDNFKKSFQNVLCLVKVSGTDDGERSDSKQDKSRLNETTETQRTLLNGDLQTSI
T3 sequence (P30872 whole entry): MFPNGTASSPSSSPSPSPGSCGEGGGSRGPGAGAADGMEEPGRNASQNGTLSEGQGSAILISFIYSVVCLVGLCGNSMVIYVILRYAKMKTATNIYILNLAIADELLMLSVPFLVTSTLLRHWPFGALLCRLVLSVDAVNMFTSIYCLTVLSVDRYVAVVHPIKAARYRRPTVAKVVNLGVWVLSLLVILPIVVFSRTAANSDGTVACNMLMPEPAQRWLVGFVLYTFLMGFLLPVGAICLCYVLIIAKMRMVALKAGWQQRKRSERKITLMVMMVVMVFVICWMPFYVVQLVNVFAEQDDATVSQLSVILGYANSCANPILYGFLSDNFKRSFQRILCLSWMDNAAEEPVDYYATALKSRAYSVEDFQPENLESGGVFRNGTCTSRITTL
T4 sequence (P35346 whole entry): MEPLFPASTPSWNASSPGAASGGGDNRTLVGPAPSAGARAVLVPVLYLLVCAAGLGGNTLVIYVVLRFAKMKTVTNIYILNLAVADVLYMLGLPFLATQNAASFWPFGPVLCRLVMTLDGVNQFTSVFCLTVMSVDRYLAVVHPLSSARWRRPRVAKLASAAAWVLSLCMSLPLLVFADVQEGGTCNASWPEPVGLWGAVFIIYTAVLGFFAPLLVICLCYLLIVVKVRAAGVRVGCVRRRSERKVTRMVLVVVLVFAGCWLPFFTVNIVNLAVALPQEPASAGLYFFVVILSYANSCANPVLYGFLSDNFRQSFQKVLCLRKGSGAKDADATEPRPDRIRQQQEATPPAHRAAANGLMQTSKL

For “H2N-AGc[CKNFFWKTFTSC]-OH (AGCKNFFWKTFTSC; disulfide cyclised; Somatostatin-14; DISULFID (3)..(14)) [SST-14, endogenous peptide somatostatin-14]”, in the series with Raw 264 cells, the “NO (nitric oxide) level in supernatant” value stood at 4.32 ng/mL, the “IL-6 level in supernatant” value is given as 4.2 ng/mL and the “TNFalpha level in supernatant” value stood at 5.21 ng/mL. Also, in the series with T cells (splenocytes), the “INFγ level in supernatant” value was 2.31 ng/mL, the “IL-2 level in supernatant” value is reported as 3.14 ng/mL and the “proliferation ([3H]-thymidine incorporation)” value is 9936.

Turning to `C[C@H](N)C(=O)NCC(=O)N[C@H]1CSSC[C@@H](C(=O)O)NC(=O)[C@H](CO)NC(=O)[C@H]([C@@H](C)O)NC(=O)[C@H](Cc2ccccc2)NC(=O)[C@H]([C@@H](C)O)NC(=O)[C@H](CCCCN)NC(=O)[C@@H](Cc2c[nH]c3ccccc23)NC(=O)[C@H](Cc2cc(F)cc(F)c2)NC(=O)[C@H](Cc2ccccc2)NC(=O)[C@H](CC(N)=O)NC(=O)[C@H](CCCCN)NC1=O` [Compound 6, H-L-Ala-Gly-c[L-Cys-L-Lys-L-Asn-L-Phe-L-Dfp-D-Trp-L-Lys-L-Thr-L-Phe-L-Thr-L-Ser-L-Cys]-OH], the half-life in series [1] is 3.8 h.

With `CCCCCCCC(=O)N1CCC[C@H]1C(=O)N[C@H]1CSSC[C@@H](C(=O)O)NC(=O)[C@H](CO)NC(=O)[C@H]([C@@H](C)O)NC(=O)[C@H](Cc2ccccc2)NC(=O)[C@H]([C@@H](C)O)NC(=O)[C@H](CCCCN)NC(=O)[C@@H](Cc2c[nH]c3ccccc23)NC(=O)[C@H](Cc2ccccc2)NC(=O)[C@H](Cc2c(C)cc(C)cc2C)NC(=O)[C@H](CC(N)=O)NC(=O)[C@H](CCCCN)NC1=O` [Compound 5, Octanoyl-L-Pro-c[L-Cys-L-Lys-L-Asn-L-Msa-L-Phe-D-Trp-L-Lys-L-Thr-L-Phe-L-Thr-L-Ser-L-Cys]-OH], in series [1], the half-life is 35 h.

On to `CCCCCCCC(=O)N1CCC[C@H]1C(=O)N[C@H]1CSSC[C@@H](C(=O)N[C@@H](CCCCN)C(=O)O)NC(=O)[C@H](CO)NC(=O)[C@H]([C@@H](C)O)NC(=O)[C@H](Cc2ccccc2)NC(=O)[C@H]([C@@H](C)O)NC(=O)[C@H](CCCCN)NC(=O)[C@@H](Cc2c[nH]c3ccccc23)NC(=O)[C@H](Cc2ccccc2)NC(=O)[C@H](Cc2c(C)cc(C)cc2C)NC(=O)[C@H](CC(N)=O)NC(=O)[C@H](CCCCN)NC1=O` [Compound 4, Octanoyl-L-Pro-c[L-Cys-L-Lys-L-Asn-L-Msa-L-Phe-D-Trp-L-Lys-L-Thr-L-Phe-L-Thr-L-Ser-L-Cys-]-L-Lys-OH], for which, in series [1], the half-life amounted to 0.35 h and the “main metabolite in serum” value is reported as “compound 5”.

On to `C[C@@H](O)[C@@H]1NC(=O)[C@H](CCCCN)NC(=O)[C@H](Cc2c[nH]c3ccccc23)NC(=O)[C@H](Cc2ccccc2)NC(=O)[C@H](Cc2ccccc2)NC(=O)[C@H](CC(N)=O)NC(=O)[C@H](CCCCN)NC(=O)[C@@H](NC(=O)[C@@H]2CCCN2)CSSC[C@@H](C(=O)N[C@@H](CCCCN)C(=O)O)NC(=O)[C@H](CO)NC(=O)[C@H](CO)NC(=O)[C@H](Cc2ccccc2)NC1=O` [CST-14] (H-PCKNFFWKTFSSCK-OH; disulfide 2-13), for which, in the series with Raw 264 cells, the “NO (nitric oxide) level in supernatant” value was 3.08 ng/mL, the “IL-6 level in supernatant” value came out at 3.78 ng/mL and the “TNFalpha level in supernatant” value stood at 3.17 ng/mL. In addition, in the series with T cells (splenocytes), the “INFγ level in supernatant” value was found to be 1.13 ng/mL, the “IL-2 level in supernatant” value was found to be 1.52 ng/mL and the “proliferation ([3H]-thymidine incorporation)” value amounted to 5500. In addition, the “main metabolite in serum” value in series [1] was “compound 14”.

B1: Compound 5: Octanoyl-L-Pro-c[L-Cys-L-Lys-L-Asn-L-Msa-L-Phe-D-Trp-L-Lys-L-Thr-L-Phe-L-Thr-L-Ser-L-Cys]-OH (peptide)
peptide: Octanoyl-PCKN[Phe(2,4,6-Me3)]F[dW]KTFTSC-OH
modifications: disulfide 2-13
SMILES: CCCCCCCC(=O)N1CCC[C@H]1C(=O)N[C@H]1CSSC[C@@H](C(=O)O)NC(=O)[C@H](CO)NC(=O)[C@H]([C@@H](C)O)NC(=O)[C@H](Cc2ccccc2)NC(=O)[C@H]([C@@H](C)O)NC(=O)[C@H](CCCCN)NC(=O)[C@@H](Cc2c[nH]c3ccccc23)NC(=O)[C@H](Cc2ccccc2)NC(=O)[C@H](Cc2c(C)cc(C)cc2C)NC(=O)[C@H](CC(N)=O)NC(=O)[C@H](CCCCN)NC1=O
As for B1, the “percentage of inhibition of specific binding” value in series [2], in series [3], in series [4] and in series [5] was more than 50% throughout.

B2: Compound 9: H-L-Asp-L-Arg-L-Met-L-Pro-c[L-Cys-L-Arg-L-Asn-L-Msa-L-Phe-L-Trp-L-Lys-L-Thr-L-Phe-L-Thr-L-Ser-L-Cys]-L-Lys-OH (peptide)
peptide: H-DRMPCRN[Phe(2,4,6-Me3)]FWKTFTSCK-OH
modifications: disulfide 5-16
SMILES: CSCC[C@H](NC(=O)[C@H](CCCNC(=N)N)NC(=O)[C@@H](N)CC(=O)O)C(=O)N1CCC[C@H]1C(=O)N[C@H]1CSSC[C@@H](C(=O)N[C@@H](CCCCN)C(=O)O)NC(=O)[C@H](CO)NC(=O)[C@H]([C@@H](C)O)NC(=O)[C@H](Cc2ccccc2)NC(=O)[C@H]([C@@H](C)O)NC(=O)[C@H](CCCCN)NC(=O)[C@H](Cc2c[nH]c3ccccc23)NC(=O)[C@H](Cc2ccccc2)NC(=O)[C@H](Cc2c(C)cc(C)cc2C)NC(=O)[C@H](CC(N)=O)NC(=O)[C@H](CCCNC(=N)N)NC1=O
For the molecule B2, the “percentage of inhibition of specific binding” value in series [2], in series [3], in series [4] and in series [5] was more than 50% throughout.

For H-PCKN[Phe(3,5-F2)]FWKT[Phe(2,4,6-Me3)]SSCK-NH2 (disulfide 2-13), the “percentage of inhibition of specific binding” value in series [2], in series [3], in series [4] and in series [5] was more than 50% in each case.

B3: Compound 10: Myristoyl-L-Asp-L-Arg-L-Met-L-Pro-c[L-Cys-L-Arg-L-Asn-L-Msa-L-Phe-L-Trp-L-Lys-L-Thr-L-Phe-L-Thr-L-Ser-L-Cys]-L-Lys-OH (peptide)
peptide: Myristoyl-DRMPCRN[Phe(2,4,6-Me3)]FWKTFTSCK-OH
modifications: disulfide 5-16
SMILES: CCCCCCCCCCCCCC(=O)N[C@@H](CC(=O)O)C(=O)N[C@@H](CCCNC(=N)N)C(=O)N[C@@H](CCSC)C(=O)N1CCC[C@H]1C(=O)N[C@H]1CSSC[C@@H](C(=O)N[C@@H](CCCCN)C(=O)O)NC(=O)[C@H](CO)NC(=O)[C@H]([C@@H](C)O)NC(=O)[C@H](Cc2ccccc2)NC(=O)[C@H]([C@@H](C)O)NC(=O)[C@H](CCCCN)NC(=O)[C@H](Cc2c[nH]c3ccccc23)NC(=O)[C@H](Cc2ccccc2)NC(=O)[C@H](Cc2c(C)cc(C)cc2C)NC(=O)[C@H](CC(N)=O)NC(=O)[C@H](CCCNC(=N)N)NC1=O
For B3, the “percentage of inhibition of specific binding” value in series [2], in series [3], in series [4] and in series [5] was more than 50% throughout.

The term half-life denotes the time in which the quantity being followed falls by half. Read a high half-life as slow decline.
